Measurements reported in PMC8564858, “Flavonoid-based inhibitors of the Phi-class glutathione transferase from black-grass to combat multiple herbicide resistance” (Organic & Biomolecular Chemistry, 2021).

Assays:
[1] = tested on: AmGSTF1; assay: Thermal shift assay; type: binding, Alopecurus myosuroides; details: difference in melting temperature compared to no ligand
[2] = tested on: AmGSTF1; assay: CDNB assay: inhibition of AmGSTF1-catalysed glutathionylation of CDNB; type: biochemical, Alopecurus myosuroides; details: for CDNB Assay % Inhibition: three replicate measurements

Row | SMILES | Thermal Shift Assay ∆Tm ([1]; 1 µM) | Thermal Shift Assay ∆Tm ([1]; 10 µM) | Thermal Shift Assay ∆Tm ([1]; 100 µM) | CDNB Assay % Inhibition ([2]; 10 µM compound) | CDNB Assay % Inhibition ([2]; 100 µM compound) | Inhibitory activity toward AmGSTF1 in the CDNB assay (in words) [2] | CDNB Assay % Inhibition ([2]; 1 µM compound)
1 | COc1cc(OC)c2c(=O)cc(C(=O)Nc3ccccc3)oc2c1 [16a] | 0.17 | 0.03 | 0.03 | 26% | 49% | – | –
2 | COc1cc(NC(=O)c2cc(=O)c3c(OC)cc(OC)cc3o2)cc(OC)c1 [16b] | 0.20 | 0.50 | 0.13 | 19% | 56% | – | –
3 | COc1cc(OC)c2c(=O)cc(C(=O)Nc3ccc(C)cc3)oc2c1 [16c] | 0.20 | 0.10 | 0.33 | 33% | 64% | – | –
4 | COc1cc(OC)c2c(=O)cc(N3CCN(C)CC3)oc2c1 [17a] | 0 | -0.03 | 0.20 | – | 16% | – | –
5 | COc1cc(OC)c2c(=O)cc(N3CCOCC3)oc2c1 [17b] | 0.06 | 0.23 | 0.20 | 0% | 37% | – | –
6 | COc1cc(OC)c2c(=O)cc(N3CCCCC3)oc2c1 [17c] | 0.23 | 0.13 | 0.30 | 12% | 67% | – | –
7 | COc1cc(OC)c2c(=O)cc(NCCCO)oc2c1 [17d] | 0.23 | 0.17 | 0.07 | – | 12% | – | –
8 | COc1cc(OC)c2c(=O)cc(-c3ccccc3)oc2c1 [18a] | 0.23 | 0.33 | 0.3 | 20% | 70% | – | –
9 | COc1cc(OC)c2c(=O)cc(-c3ccc(F)cc3)oc2c1 [18b] | 0.17 | 0.33 | 0.27 | 23% | 78% | – | –
10 | COc1ccc(-c2cc(=O)c3c(OC)cc(OC)cc3o2)cc1 [18c] | 0.23 | 0.17 | 0.70 | 15% | 100% | – | –
11 | COc1cc(OC)c2c(=O)cc(-c3cccc(-c4ccccc4)c3)oc2c1 [18d] | 0.13 | 0.13 | -0.1 | 12% | 87% | – | –
12 | CCc1ccc(-c2cc(=O)c3c(OC)cc(OC)cc3o2)cc1 [18e] | – | 0.10 | 0 | 11% | 80% | – | –
13 | COc1cccc(-c2cc(=O)c3c(OC)cc(OC)cc3o2)c1 [18f] | 0.33 | 0.2 | -0.17 | 15% | 79% | – | –
14 | COc1cc(OC)c2c(=O)cc(-c3ccc(OC)c(OC)c3)oc2c1 [18g] | 0.30 | -0.03 | 0.17 | 11% | 100% | – | –
15 | COc1cc(OC)c2c(=O)cc(-c3ccc4c(c3)OCO4)oc2c1 [18h] | 0.27 | 0.17 | 0.33 | 12% | 33% | – | –
16 | COC(=O)c1ccc(-c2cc(=O)c3c(OC)cc(OC)cc3o2)cc1 [18i] | 0.27 | 0.30 | 0.27 | 20% | 58% | – | –
17 | COc1cc(OC)c2c(=O)cc(-c3ccccc3C)oc2c1 [18j] | -0.13 | -0.03 | -0.03 | 9% | 36% | – | –
18 | COc1cc(OC)c2c(=O)cc(-c3cccc(S(C)(=O)=O)c3)oc2c1 [18k] | 0.20 | 0.10 | 0.30 | 11% | 60% | – | –
19 | O=c1c(-c2ccc(O)cc2)coc2cc(O)cc(O)c12 [compound 5, reference compound] | – | – | – | – | 47% | – | –
20 | COc1ccc(-c2coc3cc(O)ccc3c2=O)cc1 [compound 6, reference compound] | – | – | – | – | 41% | – | –
21 | O=C1c2c(O)cc(O)cc2O[C@H](c2ccc(O)c(O)c2)[C@H]1O [compound 8, reference compound] | – | – | – | – | 18% | – | –

Row | SMILES | Thermal Shift Assay ∆Tm ([1]; 1 µM) | Thermal Shift Assay ∆Tm ([1]; 10 µM) | Thermal Shift Assay ∆Tm ([1]; 100 µM) | CDNB Assay % Inhibition ([2]; 10 µM compound) | CDNB Assay % Inhibition ([2]; 100 µM compound) | Inhibitory activity toward AmGSTF1 in the CDNB assay (in words) [2] | CDNB Assay % Inhibition ([2]; 1 µM compound)
22 | Oc1cc(O)c2c(c1)OC(c1ccc(O)c(O)c1)C(O)C2 (centres unmarked) [compound 10, catechin, reference compound] | – | – | – | – | 0% | no inhibition | –
23 | Cc1cc(=O)c2c(O)cc(O)cc2o1 [compound 12] | – | – | – | – | 63% | reduced inhibitory activity | –
24 | O=C(Oc1cc(O)c2c(=O)cc(-c3ccccc3)oc2c1)c1ccccc1 [compound 27] | – | – | – | – | 4% | – | –
25 | CC(=O)Oc1cc(O)c2c(=O)cc(-c3ccccc3)oc2c1 [compound 28] | – | – | – | – | 10% | – | –
26 | CCCCCC(=O)Oc1cc(O)c2c(=O)cc(-c3ccccc3)oc2c1 [compound 29] | – | – | – | – | 6% | – | –
27 | O=c1cc(-c2ccccc2)oc2cc(OCc3ccccc3)cc(O)c12 [compound 30] | – | – | – | – | 53% | – | –
28 | O=c1cc(-c2ccccc2)oc2cc(OCC3CC3)cc(O)c12 [compound 31] | – | – | – | – | 76% | – | –
29 | O=c1cc(-c2ccccc2)oc2cc(OCC3CCCC3)cc(O)c12 [compound 32] | – | – | – | – | 80% | – | –
30 | CCCCCOc1cc(O)c2c(=O)cc(-c3ccccc3)oc2c1 [compound 33] | – | – | – | – | 87% | – | –
31 | O=c1cc(-c2ccccc2)oc2cc(OCC3CCCCO3)cc(O)c12 (centres unmarked) [compound 34] | – | – | – | – | 28% | – | –
32 | O=c1cc(-c2ccccc2)oc2cc(OCc3cccnc3)cc(O)c12 [compound 35] | – | – | – | – | 87% | – | –
33 | COc1ccc(CNc2cc(O)c3c(=O)cc(-c4ccccc4)oc3c2)cc1 [compound 36] | – | – | – | – | 45% | – | –
34 | O=c1cc(-c2ccccc2)oc2cc(N3CCCC3)cc(O)c12 [compound 37] | – | – | – | – | 46% | – | –
35 | O=c1cc(-c2ccccc2)oc2cc(N3CCCCC3)cc(O)c12 [compound 38] | – | – | – | – | 88% | – | –
36 | O=c1cc(-c2ccccc2)oc2cc(N3CCOCC3)cc(O)c12 [compound 39] | – | – | – | 56% | 100% | – | –
37 | COc1cc(OCC(=O)O)c2c(=O)cc(-c3ccccc3)oc2c1 [compound 40] | – | – | – | – | – | – | 23%
38 | COc1cc(OC(C(=O)O)C(C)C)c2c(=O)cc(-c3ccccc3)oc2c1 (centres unmarked) [compound 47] | – | – | – | – | – | – | 7%
39 | COc1cc(OC(C(=O)O)c2ccccc2)c2c(=O)cc(-c3ccccc3)oc2c1 (centres unmarked) [compound 48] | – | – | – | – | – | – | 16%
40 | COc1cc(OC(C(=O)O)c2ccc(Cl)cc2)c2c(=O)cc(-c3ccccc3)oc2c1 (centres unmarked) [compound 49] | – | – | – | – | – | – | 27%
41 | COc1cc(OC(Cc2ccccc2)C(=O)O)c2c(=O)cc(-c3ccccc3)oc2c1 (centres unmarked) [compound 50] | – | – | – | – | – | – | 8%
